From patent publication US7375105B2, “Pyridine substituted furan derivatives as Raf kinase inhibitors” (SmithKline Beecham p.l.c., priority 2001, dated 2008)

Key:
[1] = system: human colon carcinoma (Colo 201) cells; test: XTT 72 hr growth inhibition (Assay 3), Colo201; format: cell-based; settings: colorectal cancer, B-Raf ND, Ras ND
Description: (§1) XTT 72 Hr Growth Inhibition Protocol for Mammalian Cultured Cells (Assay 3)
(§2) Human diploid foreskin fibroblasts (HFF) or human colon carcinoma (Colo 201) cells were grown in Dulbecco's modified Eagle's medium (DMEM) (Invitrogen/Life Technologies) containing 10% fetal bovine serum (FBS) and the antibiotics penicillin (100 Units/ml) and streotomycin (100 micrograms/ml) (Invitrogen/Life Technologies). Growth was at 37° C. in humidified 5% CO2 incubators in 75 cm^2 plastic flasks. Cells were harvested using 0.25% trypsin/1 mM ethylenediaminetetraacetic acid (EDTA), resuspended in growth medium, and counted using a hemocytometer. Flat-bottomed 96-well plates were seeded with 2×10^3 cells/well in a volume of 200 ul from trypsinized exponentially growing cultures. To “blank” wells, growth medium was added with no additions. Cells were incubated overnight to permit attachment.
(§3) Next day, medium from wells that contained cells was replaced with 180 microliters of fresh medium. Appropriate dilutions of test compounds were added to the wells from stock solutions of compound dissolved in dimethyl sulfoxide (DMSO); final DMSO concentration in all wells was 0.2%. […] Absorbance at 450 nm was then determined using a 96-well UV plate reader (Molecular Devices). Under these conditions, absorbance of untreated control cells at 450 nm was at least 1.0 optical density unit/ml. […]

[2] = system: colon carcinoma (Colo 205); test: Methylene blue growth inhibition assay (Assay 2), Colo205; format: cell-based; settings: Homo sapiens, colorectal cancer, B-Raf V599E, Ras wt
Description: (§4) Methylene Blue Growth Inhibition Assay (Assay 2)
(§5) Normal human foreskin fibroblasts (HFF), human melanoma (A375P, SKMEL2, SKMEL3) colon carcinoma (Colo 205) were cultured in the following growth media: A375P, Colo 205, Roswell Park Memorial Institute (RPMI) 1640 (Life Technologies 22400-089) containing 10% fetal bovine serum (FBS); HFF, Dulbecco's modified Eagle Medium (DMEM) (Life Technologies 12320-032) containing 10% FBS; SKMEL2 and SKMEL3, Minimum Essential Medium (MEM, Life Technologies 11095-080) containing 1× non-essential amino acids (Life Technologies 11140-050) and 10% FBS. Cells were harvested using 0.25% trypsin/1 mM, EDTA, counted using a haemocytometer, and plated in 100 microliters of the appropriate media, at the following densities, in a 96-well tissue culture plate (Falcon 3075): HFF and A375P, 5,000 cells/well; all other cell lines, 10,000 cells/well. The next day, compounds were diluted in RPMI containing 100 micrograms/ml gentamicin, at twice the final required concentration, from 10 mM stock solutions in dimethyl sulphoxide (DMSO). One hundred microliters per well of these dilutions were added to the 100 microliters of media currently on the cell plates. RPMI containing 0.6% DMSO was added to control wells. […] Optical density at 620 nm was measured on a microplate reader. Percent inhibition of cell growth was calculated relative to vehicle treated control wells. […]

[3] = system: Human diploid foreskin fibroblasts (HFF); test: XTT 72 hr growth inhibition (Assay 3), HFF; format: cell-based; settings: Fibroblast, normal, B-Raf wt, Ras wt
Description: as §1, §2, §3

B-Raf = B-Raf (Homo sapiens, UniProt P15056); test: Fluorescence anisotropy kinase binding assay (Assay 1)
From the text: Fluorescence Anisoptrophy Kinase Binding Assay
The concentration of kinase enzyme should preferably be >1×Kf. The concentration of fluorescent ligand required will depend on the instrumentation used, and the fluorescent and physicochemical properties. The concentration used must be lower than the concentration of kinase enzyme, and preferably less than half the kinase enzyme concentration. A typical protocol is:
All compounds are serially diluted in DMSO, then by a one step dilution into buffer of comparison, 50 mM HEPES, […] pH7.5, 1 mM CHAPS, 10 mM MgCL2, for the assay.
B-Raf Enzyme concentration: 1 nM
Fluorescent ligand concentration: 0.5 nM
Test compound concentration: 0.5 nM-100 uM
Components incubated in 10 ul final volume in LJL HE 384 type B black microtitre plate until equilibrium reached (Over 3 h, up to 30 h)
Fluorescence anisotropy read in an LJL Acquest fluorescence reader.
Definitions: Ki=dissociation constant for inhibitor binding
• Kf=dissociation constant for fluorescent ligand binding
The fluorescent ligand is the following compound:
which is derived from 5-[2-(4-aminomethylphenyl)-5-pyridin-4-yl-1H-imidazol-4-yl]-2-chlorophenol and rhodamine green.

human melanoma SKMEL2 = test: Methylene blue growth inhibition assay (Assay 2), SKMEL2; format: cell-based; settings: SK-MEL-2, B-Raf wt, [Q61R]N-Ras
Description: as §4, §5

human melanoma A375P = test: Methylene blue growth inhibition assay (Assay 2), A375P; format: cell-based; settings: B-Raf V599E, Ras wt
Description: as §4, §5

human melanoma SKMEL3 = test: Methylene blue growth inhibition assay (Assay 2), SKMEL3; format: cell-based; settings: SK-MEL3, B-Raf V599E, Ras wt
Description: as §4, §5

Sequence of B-Raf (P15056 whole entry): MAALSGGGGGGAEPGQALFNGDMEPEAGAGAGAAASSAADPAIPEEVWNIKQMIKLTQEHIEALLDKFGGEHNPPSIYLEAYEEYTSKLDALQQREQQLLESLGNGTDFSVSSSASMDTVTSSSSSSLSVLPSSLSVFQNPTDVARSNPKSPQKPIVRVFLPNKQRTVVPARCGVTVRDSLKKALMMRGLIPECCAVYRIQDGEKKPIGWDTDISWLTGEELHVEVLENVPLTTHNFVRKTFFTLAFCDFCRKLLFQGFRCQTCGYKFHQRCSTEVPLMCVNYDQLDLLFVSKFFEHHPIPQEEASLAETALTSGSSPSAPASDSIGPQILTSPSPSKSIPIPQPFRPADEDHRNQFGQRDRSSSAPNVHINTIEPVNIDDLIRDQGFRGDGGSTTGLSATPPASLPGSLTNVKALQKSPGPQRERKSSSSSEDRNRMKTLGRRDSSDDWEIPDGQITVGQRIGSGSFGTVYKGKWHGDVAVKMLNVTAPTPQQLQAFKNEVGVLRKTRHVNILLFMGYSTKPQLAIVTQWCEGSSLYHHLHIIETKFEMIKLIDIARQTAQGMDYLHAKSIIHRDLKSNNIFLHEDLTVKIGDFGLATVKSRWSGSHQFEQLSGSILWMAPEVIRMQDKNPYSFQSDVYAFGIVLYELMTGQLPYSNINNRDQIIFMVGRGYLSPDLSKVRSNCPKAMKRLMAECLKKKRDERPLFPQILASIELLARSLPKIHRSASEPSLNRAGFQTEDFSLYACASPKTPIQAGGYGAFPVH

Work on `CC(C)(CN)c1cc(-c2ccncc2)c(-c2ccc(Cl)c(O)c2)o1` [Example 3, 5-[5-(2-Amino-1,1-dimethyl-ethyl)-3-pyridin-4-yl-furan-2-yl]-2-chloro-phenol] yielded an IC50 [1] of 8.5 µM, an IC50 [2] of 7.9 µM and an IC50 [3] of 22 µM. For the same compound, the Kd (B-Raf) was 5.5 nM, the IC50 (human melanoma SKMEL2) was 4.9 µM and the IC50 (human melanoma A375P) was 1.8 µM. It also gave an IC50 (human melanoma SKMEL3) of 1.4 µM.
